Data on nine compounds can be found in publication PMC6723591, “Anti-Inflammatory Cembrane-Type Diterpenoids and Prostaglandins from Soft Coral Lobophytum sarcophytoides” (Marine Drugs, 2019).

What is called IC50 is the concentration that inhibits the measured activity by half. Low values mean greater potency, high ones weaker potency.

Structures are written as SMILES.

This assay deals with LPS-activated NO production in RAW264.7 cells. The experiment in a line: Inhibition of LPS-activated NO production in RAW264.7 cells (Griess assay). The class given is cell-based. As to conditions: Mus musculus, LPS-activated RAW264.7 cells. The method, then:
All isolated compounds (except for 14 with limited amount) were tested for their inhibition activity against LPS-activated NO production in RAW264.7 cells using the Griess assay. […] The structure of PGA2 made a more positive contribution to the anti-inflammatory activity than those of PGB2 (16 vs. 15).
The anti-inflammation activity of the isolated compounds was evaluated according to the reported procedures.
Compound `CC1=CC2OCC(C)=C2CCC2(C)OC2CCC(C)(O)C=CC1` (stereo not drawn) [Compound 6] returned an IC50 of 26.7 µM.

In the case of `C=C1CC[C@@H](C(C)C)/C=C/[C@@](C)(O)C/C=C/[C@](C)(O)CC[C@@H]1O` [Compound 7, (1S,2E,4S,6E,8S,11R)-2,6,12(20)-cembratriene-4,8,11-triol], half-maximal inhibition (IC50) required 17.6 µM.

On to `CC(=O)C=C=C1C(C)(C)C[C@H](OC(C)=O)C[C@@]1(C)O` [Compound 9, apo-9′-fucoxanthinone], for which the IC50 was 32.1 µM.

The compound `CCCCCC(O)C=CC1=C(CC=CCCCC(=O)O)C(=O)CC1` (stereo not drawn) [Compound 10, (5E)-PGB2] came in with an IC50 of 20.4 µM.

Regarding `CCCCCC(O)CCC1=C(CC=CCCCC(=O)O)C(=O)CC1` (stereo not drawn) [Compound 12, 13,14-dihydro-PGB2], the IC50 was 24.8 µM.

Consider `CCCCCC(O)CCC1=C(CC=CCCCC(=O)OC)C(=O)CC1` (stereo not drawn) [Compound 13, 13,14-dihydro-PGB2-Me], for which it took 16.1 µM to reach half-maximal inhibition (IC50).

For the compound `CCCCC[C@H](O)/C=C/C1=C(C/C=C\CCCC(=O)O)C(=O)CC1` [Compound 15, PGB2], the IC50 is 15.9 µM.

On to `CCCCC[C@H](O)/C=C/[C@H]1C=CC(=O)[C@@H]1C/C=C\CCCC(=O)O` [Compound 16, PGA2], for which the IC50 was 7.1 µM.

On to `COc1ccc2c(c1)c(CC(=O)O)c(C)n2C(=O)c1ccc(Cl)cc1` [indomethacin, reference compound], for which the IC50 turned out to be 39.8 µM.
